Experimental data from patent publication US9499811B2, “Ligation enhancement” (New England Biolabs, Inc., priority 2011, dated 2016).
Where two headings read alike, the source gives them in different places.

Legend:
[1] = biological target: T1, T4 DNA ligase (Enterobacteria phage T4, UniProt P00970); experiment: Cloning of a 500 bp amplicon made by Taq DNA polymerase into a T-tailed vector (ligation test system a); type: biochemical; parameters: purchased NEB (New England Biolabs), Ipswich, Mass. #M0202; settings: no addition = 1-fold, single-base overhangs
T1 sequence (P00970 1-487): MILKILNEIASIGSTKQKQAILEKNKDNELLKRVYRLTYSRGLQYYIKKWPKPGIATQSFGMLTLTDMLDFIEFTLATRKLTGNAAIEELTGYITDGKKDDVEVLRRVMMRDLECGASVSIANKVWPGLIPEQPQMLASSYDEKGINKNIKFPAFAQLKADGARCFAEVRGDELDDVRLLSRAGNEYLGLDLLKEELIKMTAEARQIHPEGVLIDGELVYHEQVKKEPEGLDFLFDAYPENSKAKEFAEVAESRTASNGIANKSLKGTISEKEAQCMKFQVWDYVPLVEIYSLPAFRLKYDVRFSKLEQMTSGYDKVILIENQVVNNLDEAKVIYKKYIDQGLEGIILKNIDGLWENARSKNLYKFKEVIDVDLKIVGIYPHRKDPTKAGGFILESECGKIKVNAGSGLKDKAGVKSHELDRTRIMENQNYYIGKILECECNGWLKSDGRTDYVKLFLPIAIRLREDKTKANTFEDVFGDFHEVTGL
Procedure: (§1) All were tested side-by-side using two ligation test systems which were: (a) cloning of a 500 bp amplicon made by Taq DNA polymerase into a T-tailed vector; and (b) recircularization of an AhdI-linearized plasmid. Both ligation test systems used DNA with single-base overhangs.
(§2) The reaction mixtures contained DNA at 50-100 ng and 1,2-PrD at different concentrations. 1 μl of regular concentration (NEB, Ipswich, Mass., #M0202; 400 units) or 1 μl of high concentration T4 DNA ligase (NEB, Ipswich, Mass., #M0202; 2000 units) was then added to a final volume of 21 μl in 1×T4 DNA Ligase Buffer (NEB, Ipwich, Mass., #B0202) or 1× Quick Ligase™ Buffer (NEB, Ipswich, Mass., #B2200).
(§3) A standard assay uses 100 ng DNA, 1 μl of T4 DNA ligase, 21 μl 1×T4 DNA ligase buffer and varying amounts of enhancer.
(§4) Ligation reactions were incubated for 10 min at room temperature (25° C.) unless otherwise stated, then placed on ice for 2 min. In some experiments the ligase was heat-killed by incubation at 65° C. for 20 min. The ligation reactions were analyzed by 1% agarose gel electrophoresis to identify DNA species and determine the efficiency of […].
(§5) A volume of 2 μl from each ligation reaction was incubated with 50 μl of chemically competent (NEB, Ipswich, Mass., #C2987I) or electrocompetent (NEB, Ipswich, Mass., #C2989K) DH5 alpha E. coli cells.
(§6) For chemically competent cell transformations, the cell-DNA mixture was incubated on ice for 30 min, heat-shocked at 42° C. for 30 sec, then returned to ice for 5 min. A volume of 950 μl SOC medium (2% vegetable peptone or Tryptone, 0.5% yeast extract, 10 mM NaCl, 2.5 mM KCl, 10 mM MgCl2, 10 mM MgSO4 and 20 mM glucose) was added to the cell-DNA mixture, followed by a one hr 37° C. outgrowth period with agitation. A volume of 25-50 μl of appropriately diluted cells in SOC was spread onto Rich Agar plates (composition per liter: 10 g soy peptone, 5 g yeast extract, 10 g NaCl, 1 g MgCl2-6H2O, 1 g dextrose, 15 grams agar) supplemented with 100 μg/ml ampicillin. Plates were inverted and incubated for 16 hrs at 37° C., followed by quantification of total colony numbers.

[2] = biological target: T1, T4 DNA ligase; type: biochemical; parameters: purchased NEB (New England Biolabs), Ipswich, Mass. #M0202
Procedure: as §1, §2, §3, §4, §5, §6

[3] = system: ligase; settings: Xiao et al. 2007; nick junctions in double-stranded DNA; cited from earlier work
[4] = biological target: T1, T4 DNA ligase; settings: Pheiffer et al. 1983; cited from earlier work
[5] = enhancer at 12%, no addition = 1-fold, single-base overhangs

Molecule	Cloning Enhancement ([1]; enhancer at 12%)	Recircularization Enhancement [2, 5]	Effect on efficiency of ligation [3]	other results
OCCCO [1,3-PrD, 1,3-propanediol]	7-fold	9 fold	–	–
C[N+](C)(C)CC(=O)O [Betaine]	–	–	–	Cloning Enhancement ([1]; enhancer at 1.3M): 12-fold; Recircularization Enhancement ([2]; enhancer at 1.3M, no addition = 1-fold, single-base overhangs): 13-fold
C[S+](C)[O-] [DMSO, dimethyl sulfoxide]	–	–	inhibited the efficiency of the ligation reaction at nick junctions in double-stranded DNA	Cloning Enhancement ([1]; enhancer at 6%): 12-fold; Recircularization Enhancement ([2]; enhancer at 6%, no addition = 1-fold, single-base overhangs): 9-fold
CCO [Ethanol]	25-fold	–	–	Recircularization Enhancement [2]: 9-fold
OCCO [Ethylene glycol]	10-fold	–	–	Recircularization Enhancement [2]: 8-fold
OCC(O)CO [Glycerol]	4-fold	5-fold	inhibited the efficiency of the ligation reaction at nick junctions in double-stranded DNA	–
CC(C)O [Isopropanol]	16-fold	10-fold	–	–
NC=O [formamide, reference compound]	–	–	inhibited the efficiency of the ligation reaction at nick junctions in double-stranded DNA	–
PEG 200	–	–	–	Effect on blunt-end ligation [4]: little effect on ligation
PEG 400	–	–	–	Effect on blunt-end ligation [4]: little effect on ligation
